Measured values taken from ChEMBL document CHEMBL4715826, “Selective PPARδ Modulators Improve Mitochondrial Function: Potential Treatment for Duchenne Muscular Dystrophy (DMD)” (ACS Med Chem Lett, 2018).

Key:
[1] = Half life in CD-1 mouse at 3 mg/kg, iv; type: ADME, organism-based; conditions: in vivo
[2] = AUC in CD-1 mouse at 3 mg/kg, iv; type: ADME, organism-based; design: dose 3 mg/kg; conditions: in vivo
[3] = target: T1, Peroxisome proliferator-activated receptor gamma (Homo sapiens, UniProt P37231); experiment: Modulator activity at GAL4-fused human PPARgamma LBD (unknown origin) transfected in African green monkey CV1 cells assessed as receptor transactivation by luciferase reporter gene assay; type: cell-based, CV-1
T1 sequence (P37231 whole entry): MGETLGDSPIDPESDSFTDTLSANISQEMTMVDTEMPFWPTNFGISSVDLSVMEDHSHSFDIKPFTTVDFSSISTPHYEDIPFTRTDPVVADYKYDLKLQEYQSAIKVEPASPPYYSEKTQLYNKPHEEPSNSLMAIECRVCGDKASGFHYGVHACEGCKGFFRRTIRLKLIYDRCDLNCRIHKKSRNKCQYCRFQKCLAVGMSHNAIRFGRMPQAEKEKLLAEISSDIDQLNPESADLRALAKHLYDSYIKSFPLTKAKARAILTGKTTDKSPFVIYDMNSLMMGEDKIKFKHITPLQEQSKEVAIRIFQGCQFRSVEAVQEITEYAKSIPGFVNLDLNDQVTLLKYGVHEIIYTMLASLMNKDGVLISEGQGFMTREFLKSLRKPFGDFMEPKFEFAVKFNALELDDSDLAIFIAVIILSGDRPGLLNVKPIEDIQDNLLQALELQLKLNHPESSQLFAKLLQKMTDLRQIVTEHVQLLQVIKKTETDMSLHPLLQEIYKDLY

[4] = Clearance in CD-1 mouse at 3 mg/kg, iv; type: ADME, organism-based; conditions: in vivo
[5] = Selectivity index, ratio of EC50 for transactivation of GAL4-fused PPARalpha LBD (unknown origin) transfected in CV1 cells to EC50 for transactivation of GAL4-fused human PPARdelta LBD (128 to residue at C-terminus) transfected in African green monkey CV1 cells by luciferase reporter gene assay
[6] = target: T2, Peroxisome proliferator-activated receptor alpha (Homo sapiens, UniProt Q07869); experiment: Modulator activity at GAL4-fused human PPARalpha LBD (unknown origin) transfected in African green monkey CV1 cells assessed as receptor transactivation by luciferase reporter gene assay; type: cell-based, CV-1
T2 sequence (Q07869 whole entry): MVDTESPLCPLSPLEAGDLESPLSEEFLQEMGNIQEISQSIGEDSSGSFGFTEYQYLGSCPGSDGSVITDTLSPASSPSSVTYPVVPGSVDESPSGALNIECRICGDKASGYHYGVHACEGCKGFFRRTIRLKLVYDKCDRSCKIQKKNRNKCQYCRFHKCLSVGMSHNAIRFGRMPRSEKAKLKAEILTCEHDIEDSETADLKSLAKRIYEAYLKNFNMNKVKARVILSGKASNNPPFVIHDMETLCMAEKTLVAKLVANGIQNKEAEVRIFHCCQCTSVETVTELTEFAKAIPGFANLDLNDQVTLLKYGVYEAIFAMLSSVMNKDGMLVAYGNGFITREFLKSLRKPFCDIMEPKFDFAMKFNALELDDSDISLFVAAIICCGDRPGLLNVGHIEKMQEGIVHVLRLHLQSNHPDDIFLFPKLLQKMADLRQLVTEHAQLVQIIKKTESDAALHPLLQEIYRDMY

[7] = target: T3, Peroxisome proliferator-activated receptor delta (Homo sapiens, UniProt Q03181)
T3 sequence (Q03181 whole entry): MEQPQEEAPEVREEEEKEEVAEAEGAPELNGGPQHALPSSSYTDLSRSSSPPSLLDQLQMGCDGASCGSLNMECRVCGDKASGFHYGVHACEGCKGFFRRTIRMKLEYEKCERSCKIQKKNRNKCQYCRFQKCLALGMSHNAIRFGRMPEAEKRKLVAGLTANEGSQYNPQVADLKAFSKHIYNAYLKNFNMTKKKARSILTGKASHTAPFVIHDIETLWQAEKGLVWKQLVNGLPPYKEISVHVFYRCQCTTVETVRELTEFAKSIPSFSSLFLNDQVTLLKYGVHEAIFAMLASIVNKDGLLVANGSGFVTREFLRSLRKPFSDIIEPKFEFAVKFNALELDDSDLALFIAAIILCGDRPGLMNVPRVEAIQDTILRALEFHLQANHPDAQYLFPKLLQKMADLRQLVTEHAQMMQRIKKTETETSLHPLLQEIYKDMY
Description: Modulator activity at GAL4-fused human PPARdelta LBD (128 to residue at C-terminus) transfected in African green monkey CV1 cells assessed as receptor transactivation by luciferase reporter gene assay

Row | half-life [1] [min] | AUC [2] [ng·h/mL] | EC50 [3] [µM] | clearance [4] [mL/min/kg] | EC50 [6] [µM] | EC50 [7] [µM] | Compound | Ratio EC50 [5]
1 | 144 | 400 | > 10 | 120 | – | – | Cc1cnc(-c2ccc(-c3ccco3)cc2)n1Cc1ccccc1OCCCCC(C)(C)C(=O)O | –
2 | 30 | 300 | > 10 | 160 | 1.23 | – | C/C(=C\COc1ccccc1Cn1c(C)cnc1-c1ccc(-c2ccco2)cc1)CCC(=O)O | >1000
3 | 24 | 380 | 5.53 | 130 | 13.1 | – | C/C(=C\COc1ccccc1Cc1c(C)n[nH]c1-c1ccc(-c2ccco2)cc1)CCC(=O)O | >1000
4 | 48 | 170 | > 10 | 300 | 0.412 | 0.0013 | C/C(=C\COc1ccccc1Cc1c(-c2ccc(-c3ccco3)cc2)ncn1C)CCC(=O)O | >1000
